What follows are molecules tested against TBK1 (Homo sapiens (Human), UniProt Q9UHD2) (assay: TBK1 low ATP kinase assay (in vitro assay 1)). Details: in vitro assay 1, read-out: TBK1 low ATP kinase assay IC50.
Type: biochemical

TBK1, sequence (Q9UHD2 whole entry): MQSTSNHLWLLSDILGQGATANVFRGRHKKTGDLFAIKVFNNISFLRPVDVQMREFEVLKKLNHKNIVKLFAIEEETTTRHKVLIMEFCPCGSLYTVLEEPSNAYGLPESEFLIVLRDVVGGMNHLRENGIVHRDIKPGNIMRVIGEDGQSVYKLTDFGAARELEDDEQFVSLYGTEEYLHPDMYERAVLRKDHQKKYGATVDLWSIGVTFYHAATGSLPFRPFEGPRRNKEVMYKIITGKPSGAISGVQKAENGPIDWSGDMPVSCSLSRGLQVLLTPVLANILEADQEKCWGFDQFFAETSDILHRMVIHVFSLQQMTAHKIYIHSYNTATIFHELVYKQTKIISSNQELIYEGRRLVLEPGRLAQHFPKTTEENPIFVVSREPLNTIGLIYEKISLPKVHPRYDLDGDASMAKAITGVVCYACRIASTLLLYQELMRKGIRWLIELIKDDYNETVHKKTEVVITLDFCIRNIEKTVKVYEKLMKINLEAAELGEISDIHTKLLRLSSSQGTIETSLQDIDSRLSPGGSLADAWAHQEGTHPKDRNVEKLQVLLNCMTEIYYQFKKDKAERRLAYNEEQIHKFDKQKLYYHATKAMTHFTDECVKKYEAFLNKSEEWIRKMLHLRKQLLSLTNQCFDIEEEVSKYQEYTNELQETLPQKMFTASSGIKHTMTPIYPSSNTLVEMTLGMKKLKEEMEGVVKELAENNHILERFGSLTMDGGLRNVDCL

IC50 [nM] | Compound
350 | CN(C)c1cnc(-c2ccc3nc(Nc4cc(CN5CCN(C(=O)CC(F)(F)F)CC5)ccn4)[nH]c3c2)cn1 [Example 144.02, 1-(4-{[2-({6-[5-(dimethylamino)pyrazin-2-yl]-1H-benzimidazol-2-yl}amino)pyridin-4-yl]methyl}piperazin-1-yl)-3,3,3-trifluoropropan-1-one]
440 | CN(C)c1cnc(-c2ccc3nc(Nc4cc(CN5CCN(C(=O)C6CC6)CC5)ccn4)[nH]c3c2)cn1 [Example 144.03, cyclopropyl(4-{[2-({6-[5-(dimethylamino)pyrazin-2-yl]-1H-benzimidazol-2-yl}amino)pyridin-4-yl]methyl}piperazin-1-yl)methanone]
13 | CC(C)(C)OC(=O)N1CCN(Cc2ccnc(Nc3nc4ccc(-c5cc(N6CCCCC6)ncn5)cc4[nH]3)c2)CC1 [Example 145.01, tert-butyl 4-{[2-({6-[6-(piperidin-1-yl)pyrimidin-4-yl]-1H-benzimidazol-2-yl}amino)pyridin-4-yl]methyl}piperazine-1-carboxylate]
2.9 | O=C(CC(F)(F)F)N1CCN(Cc2ccnc(Nc3nc4ccc(-c5cc(N6CCCCC6)ncn5)cc4[nH]3)c2)CC1 [Example 145.02, 3,3,3-trifluoro-1-(4-{[2-({6-[6-(piperidin-1-yl)pyrimidin-4-yl]-1H-benzimidazol-2-yl}amino)pyridin-4-yl]methyl}piperazin-1-yl)propan-1-one]
2.1 | O=C(C1CC1)N1CCN(Cc2ccnc(Nc3nc4ccc(-c5cc(N6CCCCC6)ncn5)cc4[nH]3)c2)CC1 [Example 145.03, cyclopropyl(4-{[2-({6-[6-(piperidin-1-yl)pyrimidin-4-yl]-1H-benzimidazol-2-yl}amino)pyridin-4-yl]methyl}piperazin-1-yl)methanone]
14 | CN(CC(F)(F)F)c1cc(-c2ccc3nc(Nc4cc(CN5CCN(C(=O)OC(C)(C)C)CC5)ccn4)[nH]c3c2)ncn1 [Example 146.01, tert-butyl 4-({2-[(6-{6-[methyl(2,2,2-trifluoroethyl)amino]pyrimidin-4-yl}-1H-benzimidazol-2-yl)amino]pyridin-4-yl}methyl)piperazine-1-carboxylate]
9.8 | CN(CC(F)(F)F)c1cc(-c2ccc3nc(Nc4cc(CN5CCN(C(=O)CC(F)(F)F)CC5)ccn4)[nH]c3c2)ncn1 [Example 146.02, 3,3,3-trifluoro-1-[4-({2-[(6-{6-[methyl(2,2,2-trifluoroethyl)amino]pyrimidin-4-yl}-1H-benzimidazol-2-yl)amino]pyridin-4-yl}methyl)piperazin-1-yl]propan-1-one]
1.8 | O=C(CC(F)(F)F)N1CCN(Cc2ccnc(Nc3nc4ccc(-c5cc(N6CCC6)ncn5)cc4[nH]3)c2)CC1 [Example 147.02, 1-(4-{[2-({6-[6-(azetidin-1-yl)pyrimidin-4-yl]-1H-benzimidazol-2-yl}amino)pyridin-4-yl]methyl}piperazin-1-yl)-3,3,3-trifluoropropan-1-one]
25 | CCN(C)c1cc(-c2ccc3nc(Nc4cc(CN5CCN(C(=O)OC(C)(C)C)CC5)ccn4)[nH]c3c2)ncn1 [Example 148.01, tert-butyl 4-({2-[(6-{6-[ethyl(methyl)amino]pyrimidin-4-yl}-1H-benzimidazol-2-yl)amino]pyridin-4-yl}methyl)piperazine-1-carboxylate]
6.5 | CCN(C)c1cc(-c2ccc3nc(Nc4cc(CN5CCN(C(=O)CC(F)(F)F)CC5)ccn4)[nH]c3c2)ncn1 [Example 148.02, 1-[4({2-[(6-{6-[ethyl(methyl)amino]pyrimidin-4-yl}-1H-benzimidazol-2-yl)amino]pyridin-4-yl}methyl)piperazin-1-yl]-3,3,3-trifluoropropan-1-one]
4.8 | CCN(C)c1cc(-c2ccc3nc(Nc4cc(CN5CCN(C(=O)C6CC6)CC5)ccn4)[nH]c3c2)ncn1 [Example 148.03, cyclopropyl[4-({2-[(6-{6-[ethyl(methyl)amino]pyrimidin-4-yl}-1H-benzimidazol-2-yl)amino]pyridin-4-yl}methyl)piperazin-1-yl]methanone]
4.7 | CCNc1cc(-c2ccc3nc(Nc4cc(CN5CCN(C(=O)OC(C)(C)C)CC5)ccn4)[nH]c3c2)ncn1 [Example 149.01, tert-butyl 4-{[2-({6-[6-(ethylamino)pyrimidin-4-yl]-1H-benzimidazol-2-yl}amino)pyridin-4-yl]methyl}piperazine-1-carboxylate]
2 | CCNc1cc(-c2ccc3nc(Nc4cc(CN5CCN(C(=O)CC(F)(F)F)CC5)ccn4)[nH]c3c2)ncn1 [Example 149.02, 1-(4-{[2-({6-[6-(ethylamino)pyrimidin-4-yl]-1H-benzimidazol-2-yl}amino)pyridin-4-yl]methyl}piperazin-1-yl)-3,3,3-trifluoropropan-1-one]
2.3 | CCNc1cc(-c2ccc3nc(Nc4cc(CN5CCN(C(=O)C6CC6)CC5)ccn4)[nH]c3c2)ncn1 [Example 149.03, cyclopropyl(4-{[2-({6-[6-(ethylamino)pyrimidin-4-yl]-1H-benzimidazol-2-yl}amino)pyridin-4-yl]methyl}piperazin-1-yl)methanone]
15 | CNc1cc(-c2ccc3nc(Nc4cc(CN5CCN(C(=O)OC(C)(C)C)CC5)ccn4)[nH]c3c2)ncn1 [Example 150.01, tert-butyl 4-{[2-({6-[6-(methylamino)pyrimidin-4-yl]-1H-benzimidazol-2-yl}amino)pyridin-4-yl]methyl}piperazine-1-carboxylate]
5.4 | CNc1cc(-c2ccc3nc(Nc4cc(CN5CCN(C(=O)C6CC6)CC5)ccn4)[nH]c3c2)ncn1 [Example 150.03, cyclopropyl(4-{[2-({6-[6-(methylamino)pyrimidin-4-yl]-1H-benzimidazol-2-yl}amino)pyridin-4-yl]methyl}piperazin-1-yl)methanone]
2.1 | O=C(CC(F)(F)F)N1CCN(Cc2ccnc(Nc3nc4ccc(-c5cc(NC6CC6)ncn5)cc4[nH]3)c2)CC1 [Example 151.02, 1-(4-{[2-({6-[6-(cyclopropylamino)pyrimidin-4-yl]-1H-benzimidazol-2-yl}amino)pyridin-4-yl]methyl}piperazin-1-yl)-3,3,3-trifluoropropan-1-one]
1 | O=C(C1CC1)N1CCN(Cc2ccnc(Nc3nc4ccc(-c5cc(NC6CC6)ncn5)cc4[nH]3)c2)CC1 [Example 151.03, cyclopropyl(4-{[2-({6-[6-(cyclopropylamino)pyrimidin-4-yl]-1H-benzimidazol-2-yl}amino)pyridin-4-yl]methyl}piperazin-1-yl)methanone]
0.48 | O=C(CC(F)(F)F)N1CCN(Cc2ccnc(Nc3nc4ccc(-c5cc(NC6CCC6)ncn5)cc4[nH]3)c2)CC1 [Example 152.02, 1-(4-{[2-({6-[6-(cyclobutylamino)pyrimidin-4-yl]-1H-benzimidazol-2-yl}amino)pyridin-4-yl]methyl}piperazin-1-yl)-3,3,3-trifluoropropan-1-one]
0.96 | O=C(C1CC1)N1CCN(Cc2ccnc(Nc3nc4ccc(-c5cc(NC6CCC6)ncn5)cc4[nH]3)c2)CC1 [Example 152.03, (4-{[2-({6-[6-(cyclobutylamino)pyrimidin-4-yl]-1H-benzimidazol-2-yl}amino)pyridin-4-yl]methyl}piperazin-1-yl)(cyclopropyl)methanone]
14 | CC(C)N(C)c1cc(-c2ccc3nc(Nc4cc(CN5CCN(C(=O)OC(C)(C)C)CC5)ccn4)[nH]c3c2)ncn1 [Example 153.01, tert-butyl 4-({2-[(6-{6-[methyl(propan-2-yl)amino]pyrimidin-4-yl}-1H-benzimidazol-2-yl)amino]pyridin-4-yl}methyl)piperazine-1-carboxylate]
5.9 | CC(C)N(C)c1cc(-c2ccc3nc(Nc4cc(CN5CCN(C(=O)CC(F)(F)F)CC5)ccn4)[nH]c3c2)ncn1 [Example 153.02, 3,3,3-trifluoro-1-[4-({2-[(6-{6-[methyl(propan-2-yl)amino]pyrimidin-4-yl}-1H-benzimidazol-2-yl)amino]pyridin-4-yl}methyl)piperazin-1-yl]propan-1-one]
5 | CC(C)N(C)c1cc(-c2ccc3nc(Nc4cc(CN5CCN(C(=O)C6CC6)CC5)ccn4)[nH]c3c2)ncn1 [Example 153.03, cyclopropyl[4-({2-[(6-{6-[methyl(propan-2-yl)amino]pyrimidin-4-yl}-1H-benzimidazol-2-yl)amino]pyridin-4-yl}methyl)piperazin-1-yl]methanone]
4.2 | CC(C)Nc1cc(-c2ccc3nc(Nc4cc(CN5CCN(C(=O)OC(C)(C)C)CC5)ccn4)[nH]c3c2)ncn1 [Example 154.01, tert-butyl 4-{[2-({6-[6-(propan-2-ylamino)pyrimidin-4-yl]-1H-benzimidazol-2-yl}amino)pyridin-4-yl]methyl}piperazine-1-carboxylate]
3.3 | CC(C)Nc1cc(-c2ccc3nc(Nc4cc(CN5CCN(C(=O)CC(F)(F)F)CC5)ccn4)[nH]c3c2)ncn1 [Example 154.02, 3,3,3-trifluoro-1-(4-{[2-({6-[6-(propan-2-ylamino)pyrimidin-4-yl]-1H-benzimidazol-2-yl}amino)pyridin-4-yl]methyl}piperazin-1-yl)propan-1-one]
1.4 | CC(C)Nc1cc(-c2ccc3nc(Nc4cc(CN5CCN(C(=O)C6CC6)CC5)ccn4)[nH]c3c2)ncn1 [Example 154.03, cyclopropyl(4-{[2-({6-[6-(propan-2-ylamino)pyrimidin-4-yl]-1H-benzimidazol-2-yl}amino)pyridin-4-yl]methyl}piperazin-1-yl)methanone]
36 | CCN(CC)c1cc(-c2ccc3nc(Nc4cc(CN5CCN(C(=O)OC(C)(C)C)CC5)ccn4)[nH]c3c2)ncn1 [Example 155.01, tert-butyl 4-{[2-({6-[6-(diethylamino)pyrimidin-4-yl]-1H-benzimidazol-2-yl}amino)pyridin-4-yl]methyl}piperazine-1-carboxylate]

Compound | IC50 [nM]
CNc1cc(-c2ccc3nc(Nc4cc(CN5CCN(C(=O)CC(F)(F)F)CC5)ccn4)[nH]c3c2)ncn1 [Example 150.02, 3,3,3-trifluoro-1-(4-{[2-({6-[6-(methylamino)pyrimidin-4-yl]-1H-benzimidazol-2-yl}amino)pyridin-4-yl]methyl}piperazin-1-yl)propan-1-one] | 9.6

Source: patent publication US10894784B2, “Heteroarylbenzimidazole compounds” (BAYER PHARMA AKTIENGESELLSCHAFT, priority 2015, dated 2021)
